In paper PMC10584170, “Machine learning-based phenotypic imaging to characterise the targetable biology of Plasmodium falciparum male gametocytes for the development of transmission-blocking antimalarials” (PLOS Pathogens, 2023):

What was measured:
[1] = tested on: P. falciparum male gametocytes; assay: P. falciparum Dual Gamete Formation Assay (PfDGFA), male readout (exflagellation); type: cell-based, Plasmodium falciparum NF54; conditions: for IC50: this study, read-out: Pf DGFA IC50 MALE
In short: (§1)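 Two sex-specific readouts come from one well: male exflagellation centres recorded by brightfield video right after activation, and female gametes scored by Cy3-anti-Pfs25 fluorescence after 24 h at 28°C.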

HepG2 cells = assay: HepG2 cytotoxicity counter-screen; conditions: for DGFA Tox50 HepG2: HepG2 value reported with the DGFA screen; for Mean TOX: mean of the HepG2 TOX50 values
[2] = tested on: P. falciparum female gametocytes; assay: P. falciparum Dual Gamete Formation Assay (PfDGFA), female readout (Pfs25-positive female gametes); type: cell-based, Plasmodium falciparum NF54; conditions: for IC50: this study, read-out: Pf DGFA IC50 FEM
In short: as §1

Row | Structure (SMILES) | Cytotox ratio Pf Male [1] | IC50 [1] | DGFA Tox50 HepG2 (HepG2 cells) | Mean TOX (HepG2 cells) | Cytotox ratio Pf Female [2] | IC50 [2]
1 | O=C(NC1CCN(Cc2ccccc2)CC1)c1cc(C(=O)NC2CCN(Cc3ccccc3)CC2)cc(C(=O)NC2CCN(Cc3ccccc3)CC2)c1 [TC20] | 13.0 | 7.71 µM | 100 µM | 100.00 µM | 10.0 | 
2 | CC(C)S(=O)(=O)N1CCN(Cc2ccc3c(c2)nc(NC(=O)c2ccsc2)n3C[C@H](O)c2ccccc2)CC1 [TC25] | 20.7 | 0.41 µM |  | 8.48 µM | 0.848 | 
3 | Oc1cccc(CNCCCN(Cc2ccccc2)c2ccccc2)c1 [TC30] | 13.1 | 1.06 µM |  | 13.84 µM | 1.8 | 7.74 µM
4 | Fc1ccc2[nH]c(-c3ccc(-c4ccc(CNCCN5CCNCC5)cc4)cc3)nc2c1.O=C(O)C(F)(F)F [TC31] | 12.1 | 2.39 µM |  | 28.84 µM | 2.9 | 
5 | COc1cc2c(cc1S(=O)(=O)c1ccc(COc3ccc(C(F)(F)F)cc3)cc1)CNCC2.Cl [TC36] | 12.0 | 1.38 µM |  | 16.60 µM | 1.7 | 
6 | O=C(c1ccc(-c2cnc3[nH]cc(-c4ccc(C(=O)N5CCOCC5)cc4)c3c2)cc1)N1CCOCC1 [TC43] | 65.9 | 0.44 µM |  | 28.99 µM | 2.9 | 
7 | CN1CCC(NCc2ccc(-c3cnc(NCc4ccccc4)nc3)cc2)CC1.O=C(O)C(F)(F)F [TC47] | 11.6 | 0.96 µM |  | 11.10 µM | 1.7 | 6.57 µM
8 | Cc1cccc(Nc2nc(NCCCCN)nc3cc[nH]c(=O)c23)c1.O=C(O)C(F)(F)F [TC51] | 75.4 | 0.38 µM |  | 28.66 µM | 2.9 | 
9 | CCCCNS(=O)(=O)c1ccc(NC(=O)c2cc([N+](=O)[O-])ccc2Cl)cc1 [TC52] | 270.3 | 0.37 µM | 100 µM | 100.00 µM | 13.2 | 7.56 µM
10 | Cc1ccc(C)c(S(=O)(=O)NCC2CCN(Cc3ccc(O)cc3)CC2)c1.O=C(O)C(F)(F)F [TC53] | 54.7 | 1.49 µM |  | 81.55 µM | 8.2 | 
11 | CN1CCN(c2ccc(Nc3c4ccccc4nc4ccccc34)cc2)CC1 [TC57] | 45.2 | 0.59 µM |  | 26.65 µM | 3.0 | 8.84 µM
